Measured values taken from patent US11051515B2, “3-acyl-benzamides and their use as herbicides” (Bayer Aktiengesellschaft, priority 2017, dated 2021).

How the values were obtained:
POLCO [1] = test: Pre-emergence action against POLCO; type: in vivo, Polygonum convolvulus; conditions: Dosage 320 g/ha, pre-emergence
Summary of the method: (§1)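 Seeds sown in sandy loam in wood-fiber pots and covered with soil. Greenhouse growth; visual damage scored after 3 weeks versus untreated controls (100% = dead, 0% = like control).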

VERPE [2] = test: Post-emergence action against VERPE; type: in vivo, Veronica persica; conditions: dosage 80 g/ha
Summary of the method: (§2)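 Post-emergence foliar spray on greenhouse plants at the one-leaf stage, using wettable-powder or emulsion-concentrate formulations in water (600 to […], plus 0.2% wetting agent). Damage scored by eye roughly 3 weeks later against untreated plants: 0% = like control, 100% = dead.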

PHBPU [3] = test: Pre-emergence action against PHBPU; type: in vivo, Pharbitis purpurea; conditions: Dosage 320 g/ha, pre-emergence
Summary of the method: as §1

SETVI [4] = test: Pre-emergence action against SETVI; type: in vivo, Setaria viridis; conditions: pre-emergence, dosage 320 g/ha, scored visually after 3 weeks vs untreated controls
Summary of the method: as §1

STEME [5] = test: Post-emergence action against STEME; type: in vivo, Stellaria media; conditions: post-emergence, dosage 80 g/ha
Summary of the method: as §2

LOLRI = test: Pre-emergence action against LOLRI; type: in vivo, Lolium rigidum; conditions: dosage 320 g/ha, scored visually after 3 weeks vs untreated controls
Summary of the method: as §1

ALOMY [6] = test: Post-emergence action against ALOMY; type: in vivo, Alopecurus myosuroides; conditions: Dosage 80 g/ha, post-emergence
Summary of the method: as §2

VERPE [7] = test: Pre-emergence action against VERPE; type: in vivo, Veronica persica; conditions: Dosage 320 g/ha, pre-emergence
Summary of the method: as §1

VIOTR [8] = test: Post-emergence action against VIOTR; type: in vivo, Viola tricolor; conditions: post-emergence, dosage 80 g/ha
Summary of the method: as §2

DIGSA [9] = test: Pre-emergence action against DIGSA; type: in vivo, Digitaria sanguinalis; conditions: dosage 320 g/ha, scored visually after 3 weeks vs untreated controls
Summary of the method: as §1

ABUTH [10] = test: Post-emergence action against ABUTH; type: in vivo, Abutilon theophrasti; conditions: post-emergence, dosage 80 g/ha, visual assessment about 3 weeks after treatment vs untreated controls
Summary of the method: as §2

AMARE [11] = test: Pre-emergence action against AMARE; type: in vivo, Amaranthus retroflexus; conditions: pre-emergence, dosage 320 g/ha, scored visually after 3 weeks vs untreated controls
Summary of the method: as §1

VIOTR [12] = test: Pre-emergence action against VIOTR; type: in vivo, Viola tricolor; conditions: Dosage 320 g/ha, pre-emergence
Summary of the method: as §1

ABUTH [13] = test: Pre-emergence action against ABUTH; type: in vivo, Abutilon theophrasti; conditions: pre-emergence, dosage 320 g/ha, scored visually after 3 weeks vs untreated controls
Summary of the method: as §1

MATIN [14] = test: Post-emergence action against MATIN; type: in vivo, Matricaria inodora; conditions: post-emergence, dosage 80 g/ha, visual assessment about 3 weeks after treatment vs untreated controls
Summary of the method: as §2

ALOMY [15] = test: Pre-emergence action against ALOMY; type: in vivo, Alopecurus myosuroides; conditions: dosage 320 g/ha; pre-emergence; scored visually after 3 weeks vs untreated controls; 100% = plants have died, 0% = like control plants
Summary of the method: as §1

AMARE [16] = test: Post-emergence action against AMARE; type: in vivo, Amaranthus retroflexus; conditions: post-emergence, dosage 80 g/ha, visual assessment about 3 weeks after treatment vs untreated controls
Summary of the method: as §2

ECHCG [17] = test: Post-emergence action against ECHCG; type: in vivo, Echinochloa crus-galli; conditions: post-emergence, dosage 80 g/ha, visual assessment about 3 weeks after treatment vs untreated controls
Summary of the method: as §2

MATIN [18] = test: Pre-emergence action against MATIN; type: in vivo, Matricaria inodora; conditions: Dosage 320 g/ha, pre-emergence
Summary of the method: as §1

ECHCG [19] = test: Pre-emergence action against ECHCG; type: in vivo, Echinochloa crus-galli; conditions: pre-emergence, dosage 320 g/ha, scored visually after 3 weeks vs untreated controls
Summary of the method: as §1

PHBPU [20] = test: Post-emergence action against PHBPU; type: in vivo, Pharbitis purpurea; conditions: post-emergence, dosage 80 g/ha
Summary of the method: as §2

DIGSA [21] = test: Post-emergence action against DIGSA; type: in vivo, Digitaria sanguinalis; conditions: dosage 80 g/ha, visual assessment about 3 weeks after treatment vs untreated controls
Procedure: Seeds of monocotyledonous and dicotyledonous weed and crop plants are laid out in sandy loam soil in wood-fiber pots, covered with soil and cultivated in a greenhouse under good growth conditions. 2 to 3 weeks after sowing, the test plants are treated at the one-leaf stage. The compounds of the invention, formulated in the form of wettable powders (WP) or as emulsion concentrates (EC), are then sprayed onto the green parts of the plants in the form of an aqueous suspension or emulsion at a water application rate equating to […], with addition of 0.2% wetting agent. After the test plants have been left to stand in the greenhouse under optimal growth conditions for about 3 weeks, the action of the preparations is assessed visually in comparison to untreated controls (herbicidal action in percent (%): 100% activity=the plants have died, 0% activity=like control plants). […] At the same time, inventive compounds leave Gramineae crops such as barley, wheat, rye, millet/Sorghum, corn or rice virtually undamaged when applied post-emergence, even at high active ingredient dosages. In addition, some substances are also harmless to dicotyledonous crops such as soya, cotton, oilseed rape, sugar beet or potatoes. Some of the compounds according to the invention have high selectivity and are therefore suitable for controlling unwanted vegetation in agricultural crops by the post-emergence method. The data of Tables B18 to B34 below illustrate, in an exemplary manner, the […] herbicidal action of the compounds according to the invention, the herbicidal activity being stated in percent.

AVEFA = test: Pre-emergence action against AVEFA; type: in vivo, Avena fatua; conditions: dosage 320 g/ha, scored visually after 3 weeks vs untreated controls
Summary of the method: as §1

SETVI [22] = test: Post-emergence action against SETVI; type: in vivo, Setaria viridis; conditions: post-emergence, dosage 80 g/ha, visual assessment about 3 weeks after treatment vs untreated controls
Summary of the method: as §2

STEME [23] = test: Pre-emergence action against STEME; type: in vivo, Stellaria media; conditions: Dosage 320 g/ha, pre-emergence
Summary of the method: as §1

POLCO [24] = test: Post-emergence action against POLCO; type: in vivo, Polygonum convolvulus; conditions: post-emergence, dosage 80 g/ha
Summary of the method: as §2

Structure (SMILES) | Post-emergence action against VERPE (VERPE [2]) | Pre-emergence action against PHBPU (PHBPU [3]) | SETVI (Table B8, pre-emergence herbicidal activity) (SETVI [4]) | Post-emergence action against STEME (STEME [5]) | Post-emergence action against ALOMY (ALOMY [6]) | Pre-emergence action against VERPE (VERPE [7]) | Post-emergence action against VIOTR (VIOTR [8]) | Pre-emergence action against DIGSA (herbicidal activity) (DIGSA [9]) | Post-emergence action against ABUTH (herbicidal action in percent) (ABUTH [10]) | Pre-emergence action against AMARE (herbicidal activity) (AMARE [11]) | Pre-emergence action against VIOTR (VIOTR [12]) | Pre-emergence action against ABUTH (herbicidal activity) (ABUTH [13]) | Post-emergence action against MATIN (herbicidal action in percent) (MATIN [14]) | Pre-emergence action against ALOMY (herbicidal activity in percent) (ALOMY [15]) | Post-emergence action against AMARE (herbicidal action in percent) (AMARE [16]) | Post-emergence action against ECHCG (herbicidal action in percent) (ECHCG [17]) | Pre-emergence action against MATIN (MATIN [18]) | Post-emergence action against PHBPU (PHBPU [20]) | Post-emergence action against DIGSA (herbicidal action in percent) (DIGSA [21]) | Pre-emergence action against STEME (STEME [23]) | further results
CCn1nnnc1NC(=O)c1ccc(C(F)(F)F)c(C(=O)CCl)c1C [2-22] | 80 | 80% | 100% | 90 | 80% | 100% | 100 | 100% | 90% | 100% | 100% | 100% | 90% | 90% | 80% | 90% | 100% | 100 | 90% | 100% | Pre-emergence action against POLCO (POLCO [1]): 80%; Pre-emergence action against LOLRI (herbicidal activity) (LOLRI): 90%; Pre-emergence action against ECHCG (herbicidal activity) (ECHCG [19]): 90%; Pre-emergence action against AVEFA (herbicidal activity) (AVEFA): 100%; Post-emergence action against SETVI (herbicidal action in percent) (SETVI [22]): 80%
CCCC(=O)c1c(C(F)(F)F)ccc(C(=O)Nc2nnnn2CCC)c1C [3-16] | 80 | 80% | 100% | 90 | 80% | 100% | 80 | 90% | 100% | 100% | 90% | 100% | 90% | 80% | 100% | 90% | 100% | 90 | 90% | 100% | Post-emergence action against POLCO (POLCO [24]): 90; Pre-emergence action against ECHCG (herbicidal activity) (ECHCG [19]): 90%; Pre-emergence action against AVEFA (herbicidal activity) (AVEFA): 80%; Post-emergence action against SETVI (herbicidal action in percent) (SETVI [22]): 90%
CCn1nnnc1NC(=O)c1ccc(C(F)(F)F)c(C(=O)C2CCC2)c1Cl [2-153] | – | – | 100% | 100 | – | 100% | 90 | 100% | 100% | 100% | 100% | 100% | 100% | 90% | 90% | 90% | 100% | 80 | 100% | 90% | Post-emergence action against POLCO (POLCO [24]): 80
